Measured values from paper PMC7092364 (European journal of medicinal chemistry, 2017).
Marks after values point to notes of the source that are not given here.

Tests used:
[1] = biological target: full-length recombinant NC (1–55) (Human immunodeficiency virus type 1 group M subtype B, UniProt P12493); assay: Non-denaturing ESI-MS binding and binding competition with NC; parameters: species or system HIV-1 LAI strain; settings: for complex formation with NC (ESI-MS): 5 μM NC, ten-fold compound concentration
NC(11–55) peptide = NC(11–55) peptide (Human immunodeficiency virus type 1 group M subtype B, UniProt P04591, I389N); assay: Nucleic acid destabilization assay; format: biochemical, HIV-1 MAL strain; settings: 200 μM of compound
MT-2 cells = format: cell-based; settings: human, 72 h

Row | SMILES | complex formation with NC (ESI-MS) [1] | affinity of 5–06 for NC relative to compound 5 ([1]; from fractional occupancies) | inhibition of the NC-induced cTAR55 destabilization (NC(11–55) peptide) | TD50 (MT-2 cells)
1 | O=c1[nH]c2cc(S(=O)(=O)Nc3ccc4[nH]ncc4c3)ccc2o1 [5–06, N-(1H-indazol-5-yl)-2-oxo-2,3-dihydro-1,3-benzoxazole-5-sulfonamide] | stable 1:1 complexes | two to three-fold higher affinity | by half | 140^# (75.0–378.0) μM
2 | Cc1ccc(NS(=O)(=O)c2ccc3oc(=O)[nH]c3c2)c(C)c1 [compound 5, N-(2,4-dimethylphenyl)-2-oxo-2,3-dihydro-1,3-benzoxazole-5-sulfonamide] | stable 1:1 complexes |  |  | 
